Changes are numbered by the printed parent chain. Read-outs that look alike come from different tables or passages of the source. Blank lines part the entries; values can stand above or below the molecule they belong to.
Tests used:
[1] = biological target: T1, Androgen Receptor (AR) (Homo sapiens, UniProt P10275, T878A); experiment: Measurement of AR protein degradation in LNCaP cells by Western blotting; assay type: cell-based; details: read-out: AR degradation in LNCaP cells (%)
T1 construct: endogenous in cells; host or cells: LNCaP
T1 sequence (P10275 1-920 T878A): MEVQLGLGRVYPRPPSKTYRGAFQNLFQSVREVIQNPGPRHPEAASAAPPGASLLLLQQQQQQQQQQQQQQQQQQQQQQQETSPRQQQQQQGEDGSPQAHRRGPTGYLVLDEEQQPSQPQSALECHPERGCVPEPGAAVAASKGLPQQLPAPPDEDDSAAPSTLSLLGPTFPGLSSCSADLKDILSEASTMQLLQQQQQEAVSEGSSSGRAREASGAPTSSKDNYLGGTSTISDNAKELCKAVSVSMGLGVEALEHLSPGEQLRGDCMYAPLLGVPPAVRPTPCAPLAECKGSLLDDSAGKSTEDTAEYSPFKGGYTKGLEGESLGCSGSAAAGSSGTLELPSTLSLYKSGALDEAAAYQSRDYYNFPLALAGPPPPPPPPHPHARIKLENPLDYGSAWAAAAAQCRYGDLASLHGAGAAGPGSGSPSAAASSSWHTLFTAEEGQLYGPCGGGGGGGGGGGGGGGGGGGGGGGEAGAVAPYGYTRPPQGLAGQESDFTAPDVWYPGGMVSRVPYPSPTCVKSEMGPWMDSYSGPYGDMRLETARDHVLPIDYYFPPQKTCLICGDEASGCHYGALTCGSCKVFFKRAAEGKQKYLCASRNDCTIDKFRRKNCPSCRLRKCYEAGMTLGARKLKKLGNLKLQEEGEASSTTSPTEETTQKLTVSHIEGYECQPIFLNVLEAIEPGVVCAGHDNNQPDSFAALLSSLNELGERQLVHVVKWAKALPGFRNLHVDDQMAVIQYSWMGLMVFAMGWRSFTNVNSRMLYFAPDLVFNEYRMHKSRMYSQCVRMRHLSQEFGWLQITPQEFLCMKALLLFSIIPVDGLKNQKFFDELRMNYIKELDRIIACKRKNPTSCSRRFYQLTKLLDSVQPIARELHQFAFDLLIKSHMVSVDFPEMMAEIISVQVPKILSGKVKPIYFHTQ
Protocol: (§1) The amount of AR protein present in LNCaP or VCaP cells was measured after treating them with the synthesized compound. The amount of AR protein was measured using Western blotting. The protocol for the experiments using LNCaP or VCaP cells was as follows.
(§2) [Culture] LNCaP cells were resuspended in RPMI1640 medium + HEPES (Hyclone, SH30255.01), 10% FBS (Hyclone, SV30207.02), and 1% Penicillin-streptomycin (Welgene, LS 202-02). 3 x 10^5 cells/mL were seeded in 12-well plates (1 mL per well) and cultured for 3 days. VCaP cells were resuspended in IMDM MEDIUM (Hyclone, SH30228.01), 20% FBS (Hyclone, SV30207.02), and 1% Penicillin-streptomycin (Welgene, LS 202-02), seeded at 9 x 10^5/mL in 1 mL per 12-well plate, and cultured for 3 days.
(§3) [Compound Treatment] 10 µL of 100x stock (e.g., 0.1, 1, 10 µM) compound solution at the final compound treatment concentration (e.g., 0.001, 0.01, 0.1 µM) was added to each well in 1 mL media, and cells were harvested after 20 hours. For DC50 measurement, 100x stock (0.01, 0.1, 1, 10, 100, 1000 µM) compound solutions at the final compound treatment concentration (0.0001, 0.001, 0.01, 0.1, 1, 10 µM) were used.
(§4) [Cell lysis] The cell pellet was suspended using 1% SDS lysis buffer (50 mM Tris, 1 mM EDTA, 1% SDS, pH 8.0, 0.5 mM PMSF, 1x Protease/Phosphatase inhibitor Cocktail (Cell Signaling Technology, 5872S)), and sonication (70% AMP, 10 cycles (30 sec ON/59 sec OFF)) was performed. After centrifugation at 4°C and 20,000 g for 20 minutes, the cell lysate was obtained and transferred to a new tube.
(§5) [Protein Quantification] A BCA protein assay (SMART™ BCA Protein Assay Kit, iNtRON Biotechnology, 21071) was performed using a 96-well microplate. 5 µL of cell lysate and 5 µL of 1% SDS lysis buffer were added to each well of the 96-well plate, followed by an additional 200 µL of BCA reagent (Reagent A: Reagent B = 50:1). The wells were incubated at 37°C for 30 minutes and cooled to room temperature for 10 minutes. After shaking for 10 seconds, the absorbance was measured at a wavelength of 562 nm. The unknown protein concentration was determined using a BSA standard curve (0, 0.125, 0.25, 0.5, 1, 2 mg/mL). Western blotting samples were prepared by mixing cell lysate, 1% SDS lysis buffer, 4x NuPAGE™ LDS Sample buffer (Invitrogen, NP0008), and 10X NuPAGE™ Sample Reducing Agent (Invitrogen, NP0009) and boiling at 70°C for 10 minutes.
(§6) [Electrophoresis] 10 µg of protein sample was loaded into each well of a NuPAGE™ 4 to 12%, Bis-Tris, 1.0 mm Mini Protein Gel, 15-well, 17-well, or 26-well (Invitrogen, NP0323BOX, NP0329BOX, or WG1403BOX) and electrophoresed for 40 minutes using NuPAGE™MES SDS Running Buffer (Invitrogen, NP0002) at 200 V (constant V).
(§7) [Transfer] Transfer was performed for 15 or 18 minutes using the electrophoresed gel and the Trans-Blot® Turbo™ Transfer Starter System (Bio-RAD, #17001918, Mini Nitrocellulose) at 1.3 A (constant A) and 25 V (limit V). To confirm protein transfer, 15 mL of Ponceau S solution (Sigma, P7170-1L) was used to stain for 1 minute, and then washed to check the degree of transfer.
(§8) [Blocking] The membrane for AR and GAPDH detection was blocked with 5% skim milk/0.2% TBST (Skim milk: BD, 232100/ 20X TBS: Biosesang, TR2008-100-00/ 10% Tween 20 Solution: Bio-RAD, #161-0781) for 45 minutes.
(§9) [Antibodies and Detection] Primary AR antibody (Androgen Receptor: CST, 5153S) was mixed with 5% skim milk/0.2% TBST at a ratio of 1:1,000 and reacted at room temperature for 3 hours or at 4°C overnight. Primary GAPDH antibody (CST, 2118S) was mixed with 5% skim milk/0.2% TBST at a ratio of 1:2,000 and reacted at room temperature for 3 hours or at 4°C overnight. Afterwards, TBST (0.2% Tween 20) was used for washing three times every 5 minutes. Secondary antibody to AR antibody, Anti-rabbit IgG, HRP-linked Antibody (CST, 7074S), was mixed with 5% skim milk/0.2% TBST at a ratio of 1:5,000 and reacted at room temperature for 45 minutes. […]

[2] = biological target: T2, Androgen Receptor (AR) (Homo sapiens, UniProt P10275); experiment: Measurement of AR protein degradation in VCaP cells by Western blotting; assay type: cell-based; set-up: endogenous in cells; host or cells: VCaP; details: VCaP, 20 h, read-out: AR degradation in VCaP cells (%)
T2 sequence (P10275 1-920): T1 sequence (P10275 1-920 T878A) with A878T
Protocol: as §1, §2, §3, §4, §5, §6, §7, §8, §9

SMILES: N#Cc1ccc(N2CCC(C(=O)Nc3ccc(OC4CCN(CC5CCN(c6ccc(NC7CCC(=O)NC7=O)cc6C(F)(F)F)CC5)CC4)cn3)CC2)cc1C(F)(F)F (stereo not drawn) [Example 18, 1-(4-cyano-3-(trifluoromethyl)phenyl)-N-(5-((1-((1-(4-((2,6-dioxopiperidin-3-yl)amino)-2-(trifluoromethyl)phenyl)piperidin-4-yl)methyl)piperidin-4-yl)oxy)pyridin-2-yl)piperidine-4-carboxamide]
Dmax at 0.01 µM ([1]; LNCaP, 20 h): 51% | Dmax at 0.1 µM ([1]; LNCaP, 20 h): 98%

SMILES: N#Cc1ccc(N2CCC(C(=O)Nc3ccc(OC4CCN(CC5CCN(c6ccc(NC7CCC(=O)NC7=O)cc6F)CC5)CC4)cn3)CC2)c(F)c1C(F)(F)F (stereo not drawn) [Example 11, 1-(4-cyano-2-fluoro-3-(trifluoromethyl)phenyl)-N-(5-((1-((1-(4-((2,6-dioxopiperidin-3-yl)amino)-2-fluorophenyl)piperidin-4-yl)methyl)piperidin-4-yl)oxy)pyridin-2-yl)piperidine-4-carboxamide]
Dmax at 0.01 µM [2]: 89% | Dmax at 0.1 µM [2]: 99%

SMILES: N#Cc1ccc(N2CCC(C(=O)Nc3ccc(OC4CCN(CC5CCN(c6ccc(NC7CCC(=O)NC7=O)cc6F)CC5)CC4)nn3)CC2)c(F)c1C(F)(F)F (stereo not drawn) [Example 14, 1-(4-cyano-2-fluoro-3-(trifluoromethyl)phenyl)-N-(6-((1-((1-(4-((2,6-dioxopiperidin-3-yl)amino)-2-fluorophenyl)piperidin-4-yl)methyl)piperidin-4-yl)oxy)pyridazin-3-yl)piperidine-4-carboxamide]
Dmax at 0.01 µM [2]: 87% | Dmax at 0.1 µM [2]: 95%

SMILES: N#Cc1ccc(N2CCN(C(=O)Nc3ccc(OC4CCN(CC5CCN(c6ccc(NC7CCC(=O)NC7=O)cc6F)CC5)CC4)cn3)CC2)cc1C(F)(F)F (stereo not drawn) [Example 6, 4-(4-cyano-3-(trifluoromethyl)phenyl)-N-(5-((1-((1-(4-((2,6-dioxopiperidin-3-yl)amino)-2-fluorophenyl)piperidin-4-yl)methyl)piperidin-4-yl)oxy)pyridin-2-yl)piperazine-1-carboxamide]
Dmax at 0.01 µM ([1]; LNCaP, 20 h): 84% | Dmax at 0.1 µM ([1]; LNCaP, 20 h): 99%

Dmax at 0.01 µM ([1]; 10 nM compound, 20 hours, LNCaP cells): 63% | Dmax at 0.1 µM ([1]; 100 nM compound, 20 hours, LNCaP cells): 97%
SMILES: N#Cc1ncc(N2CCC(C(=O)Nc3ccc(OC4CCN(CC5CCN(c6ccc(NC7CCC(=O)NC7=O)cc6F)CC5)CC4)cn3)CC2)cc1C(F)(F)F (stereo not drawn) [Example 5, 1-(6-cyano-5-(trifluoromethyl)pyridin-3-yl)-N-(5-((1-((1-(4-((2,6-dioxopiperidin-3-yl)amino)-2-fluorophenyl)piperidin-4-yl)methyl)piperidin-4-yl)oxy)pyridin-2-yl)piperidine-4-carboxamide]

SMILES: N#Cc1ccc(N2CCC(C(=O)Nc3ccc(OC4CCN(C5CCN(c6ccc(NC7CCC(=O)NC7=O)cc6F)CC5)CC4)cn3)CC2)cc1C(F)(F)F (stereo not drawn) [Example 4, 1-(4-cyano-3-(trifluoromethyl)phenyl)-N-(5-((1'-(4-((2,6-dioxopiperidin-3-yl)amino)-2-fluorophenyl)-[1,4'-bipiperidin]-4-yl)oxy)pyridin-2-yl)piperidine-4-carboxamide]
Dmax at 0.01 µM ([1]; LNCaP, 20 h): 76% | Dmax at 0.1 µM ([1]; LNCaP, 20 h): 93%
